Reference: patent US7074789B2, “Kinase inhibitors” (Amgen Inc., priority 1999, dated 2006)
“And” between values parts separate entries of the source, which are not always exact repeats. Identical values can stand only once. Like-named read-outs stand apart in the source and are kept apart here.

What was measured:
Assay type in all cases: biochemical
Lck = target: T1, Lck (Homo sapiens, UniProt P06239); assay: Kinase inhibition assay (33P transfer), Lck; settings: read-out: Lck-1
T1 construct: Kinases are expressed as either kinase domains or full length constructs; made in house
In short: (§1)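 Liquid scintillation counting of 33P on plate-bound synthetic substrates gives kinase activity. Plates are washed in 0.5% phosphoric acid first; kinases are tagged recombinant proteins from E. coli or baculovirus-infected High Five cells.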

Lyn = target: T2, Lyn (Homo sapiens, UniProt P07948); assay: Kinase inhibition assay (33P transfer), Lyn; settings: Table 6, Lyn-1 kinase inhibition class
T2 construct: Kinases are expressed as either kinase domains or full length constructs; made in house
In short: (§2)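 Using immobilised substrate copolymers (poly(Glu,Tyr) 4:1; poly(Arg,Ser) 3:1) and [33P]ATP, purified fusion kinases were allowed to react; plates were then rinsed in 0.5% phosphoric acid and counted in a scintillation detector. Half-maximal inhibition of label transfer defines IC50.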

Src = target: T3, Src (Homo sapiens, UniProt P12931); assay: Kinase inhibition assay (33P transfer), Src; settings: Table 6, Src-1 kinase inhibition class
T3 construct: Kinases are expressed as either kinase domains or full length constructs; made in house
In short: as §2

Fyn = target: T4, Fyn (Homo sapiens, UniProt P06241); assay: Kinase inhibition assay (33P transfer), Fyn; settings: read-out: Fyn-1
T4 construct: Kinases are expressed as either kinase domains or full length constructs; made in house
In short: as §2

Zap-70 = target: T5, Zap-70 (Homo sapiens, UniProt P43403); assay: Kinase inhibition assay (33P transfer), Zap-70; settings: read-out: Zap-1
T5 construct: Kinases are expressed as either kinase domains or full length constructs; made in house
T5 sequence (P43403 1-619): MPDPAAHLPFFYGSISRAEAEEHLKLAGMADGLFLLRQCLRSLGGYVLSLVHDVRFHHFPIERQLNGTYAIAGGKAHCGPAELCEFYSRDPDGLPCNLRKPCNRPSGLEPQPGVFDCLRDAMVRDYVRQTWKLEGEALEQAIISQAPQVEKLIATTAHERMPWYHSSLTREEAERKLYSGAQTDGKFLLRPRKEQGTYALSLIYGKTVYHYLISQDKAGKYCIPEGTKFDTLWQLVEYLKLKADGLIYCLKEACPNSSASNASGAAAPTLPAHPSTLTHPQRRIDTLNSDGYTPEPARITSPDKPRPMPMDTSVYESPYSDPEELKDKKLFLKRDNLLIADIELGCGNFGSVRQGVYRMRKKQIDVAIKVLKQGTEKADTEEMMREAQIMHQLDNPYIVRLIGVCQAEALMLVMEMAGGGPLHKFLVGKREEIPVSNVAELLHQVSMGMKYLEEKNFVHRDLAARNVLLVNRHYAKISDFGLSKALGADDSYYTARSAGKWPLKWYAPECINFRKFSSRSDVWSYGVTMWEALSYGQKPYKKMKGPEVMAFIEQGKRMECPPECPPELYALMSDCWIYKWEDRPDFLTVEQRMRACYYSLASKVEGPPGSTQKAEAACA
In short: as §1

Itk = target: T6, Itk (Homo sapiens, UniProt Q08881); assay: Kinase inhibition assay (33P transfer), Itk; settings: read-out: Itk-1
T6 construct: Kinases are expressed as either kinase domains or full length constructs; made in house
T6 sequence (Q08881 1-620): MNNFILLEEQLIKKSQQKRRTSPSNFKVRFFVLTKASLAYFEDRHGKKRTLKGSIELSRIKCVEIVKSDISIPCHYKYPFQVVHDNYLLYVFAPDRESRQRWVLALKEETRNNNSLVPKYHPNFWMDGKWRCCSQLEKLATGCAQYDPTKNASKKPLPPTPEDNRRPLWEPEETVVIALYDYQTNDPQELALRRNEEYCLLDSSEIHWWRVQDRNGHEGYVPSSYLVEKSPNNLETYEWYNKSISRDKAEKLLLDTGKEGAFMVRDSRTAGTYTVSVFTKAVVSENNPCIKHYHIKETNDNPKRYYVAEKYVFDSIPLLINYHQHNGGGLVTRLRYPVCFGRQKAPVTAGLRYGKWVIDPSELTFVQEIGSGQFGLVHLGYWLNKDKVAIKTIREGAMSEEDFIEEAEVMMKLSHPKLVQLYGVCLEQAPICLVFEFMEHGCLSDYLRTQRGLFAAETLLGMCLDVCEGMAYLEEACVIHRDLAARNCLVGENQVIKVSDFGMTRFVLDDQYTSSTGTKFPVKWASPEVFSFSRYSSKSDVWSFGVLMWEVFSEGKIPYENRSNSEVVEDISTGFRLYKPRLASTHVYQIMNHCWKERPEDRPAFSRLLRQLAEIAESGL
In short: as §2

EGFR = target: T7, EGFR (Homo sapiens, UniProt P00533); assay: Kinase inhibition assay (33P transfer), EGFR; settings: Table 2, kinase inhibition class; read-out: EGFR-1
T7 construct: Kinases are expressed as either kinase domains or full length constructs; made in house
In short: as §2

ErbB2 = target: T8, ErbB2 (Homo sapiens, UniProt P04626); assay: Kinase inhibition assay (33P transfer), ErbB2; settings: read-out: ErbB2-2
T8 construct: Kinases are expressed as either kinase domains or full length constructs; made in house
In short: as §2

Kdr = target: T9, Kdr (Homo sapiens, UniProt P35968); assay: Kinase inhibition assay (33P transfer), Kdr; settings: read-out: KDR-1
T9 construct: Kinases are expressed as either kinase domains or full length constructs; made in house
T9 sequence (P35968 20-1356, species assumed): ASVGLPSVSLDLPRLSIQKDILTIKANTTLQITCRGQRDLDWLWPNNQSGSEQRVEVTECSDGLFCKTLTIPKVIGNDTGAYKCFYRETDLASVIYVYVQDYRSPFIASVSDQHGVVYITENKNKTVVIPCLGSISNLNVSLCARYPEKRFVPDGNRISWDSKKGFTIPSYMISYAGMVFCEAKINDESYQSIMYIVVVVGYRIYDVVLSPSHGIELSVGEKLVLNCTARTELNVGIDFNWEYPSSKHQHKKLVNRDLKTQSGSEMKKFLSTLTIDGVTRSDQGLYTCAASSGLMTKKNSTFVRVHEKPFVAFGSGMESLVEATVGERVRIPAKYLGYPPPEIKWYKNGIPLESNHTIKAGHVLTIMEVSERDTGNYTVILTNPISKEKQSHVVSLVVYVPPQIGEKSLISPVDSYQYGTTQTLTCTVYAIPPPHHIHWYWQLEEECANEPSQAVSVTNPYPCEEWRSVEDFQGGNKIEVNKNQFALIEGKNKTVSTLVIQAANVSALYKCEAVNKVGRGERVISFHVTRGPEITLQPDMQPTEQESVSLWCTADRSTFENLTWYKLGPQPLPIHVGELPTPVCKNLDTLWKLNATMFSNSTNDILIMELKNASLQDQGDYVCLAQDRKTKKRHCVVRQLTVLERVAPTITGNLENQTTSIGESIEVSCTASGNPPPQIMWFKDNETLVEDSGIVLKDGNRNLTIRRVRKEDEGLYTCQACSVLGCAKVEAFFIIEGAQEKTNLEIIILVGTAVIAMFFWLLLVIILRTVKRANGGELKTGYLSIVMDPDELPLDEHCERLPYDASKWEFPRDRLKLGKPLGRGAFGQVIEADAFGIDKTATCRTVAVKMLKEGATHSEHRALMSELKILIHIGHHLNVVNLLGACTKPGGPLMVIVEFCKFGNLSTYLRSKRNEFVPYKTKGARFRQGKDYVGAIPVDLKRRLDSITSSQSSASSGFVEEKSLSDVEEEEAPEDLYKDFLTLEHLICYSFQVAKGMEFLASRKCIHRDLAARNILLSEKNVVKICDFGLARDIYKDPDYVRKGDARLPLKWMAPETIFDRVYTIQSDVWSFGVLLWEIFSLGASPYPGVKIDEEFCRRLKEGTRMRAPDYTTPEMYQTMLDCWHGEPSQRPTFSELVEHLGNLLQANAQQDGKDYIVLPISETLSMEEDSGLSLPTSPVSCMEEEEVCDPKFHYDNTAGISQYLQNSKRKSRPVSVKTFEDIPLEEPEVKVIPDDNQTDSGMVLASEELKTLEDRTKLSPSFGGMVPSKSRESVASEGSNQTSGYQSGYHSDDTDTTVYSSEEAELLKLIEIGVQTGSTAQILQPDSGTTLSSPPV
In short: as §1

Flt-1 = target: T10, Flt-1 (Homo sapiens, UniProt P17948); assay: Kinase inhibition assay (33P transfer), Flt-1
T10 construct: Kinases are expressed as either kinase domains or full length constructs; made in house
In short: as §2

c-Met = target: T11, c-Met (Homo sapiens, UniProt P08581); assay: Kinase inhibition assay (33P transfer), c-Met; settings: Table 2, kinase inhibition class; read-out: Met-1
T11 construct: Kinases are expressed as either kinase domains or full length constructs; made in house
T11 sequence (P08581 25-1390): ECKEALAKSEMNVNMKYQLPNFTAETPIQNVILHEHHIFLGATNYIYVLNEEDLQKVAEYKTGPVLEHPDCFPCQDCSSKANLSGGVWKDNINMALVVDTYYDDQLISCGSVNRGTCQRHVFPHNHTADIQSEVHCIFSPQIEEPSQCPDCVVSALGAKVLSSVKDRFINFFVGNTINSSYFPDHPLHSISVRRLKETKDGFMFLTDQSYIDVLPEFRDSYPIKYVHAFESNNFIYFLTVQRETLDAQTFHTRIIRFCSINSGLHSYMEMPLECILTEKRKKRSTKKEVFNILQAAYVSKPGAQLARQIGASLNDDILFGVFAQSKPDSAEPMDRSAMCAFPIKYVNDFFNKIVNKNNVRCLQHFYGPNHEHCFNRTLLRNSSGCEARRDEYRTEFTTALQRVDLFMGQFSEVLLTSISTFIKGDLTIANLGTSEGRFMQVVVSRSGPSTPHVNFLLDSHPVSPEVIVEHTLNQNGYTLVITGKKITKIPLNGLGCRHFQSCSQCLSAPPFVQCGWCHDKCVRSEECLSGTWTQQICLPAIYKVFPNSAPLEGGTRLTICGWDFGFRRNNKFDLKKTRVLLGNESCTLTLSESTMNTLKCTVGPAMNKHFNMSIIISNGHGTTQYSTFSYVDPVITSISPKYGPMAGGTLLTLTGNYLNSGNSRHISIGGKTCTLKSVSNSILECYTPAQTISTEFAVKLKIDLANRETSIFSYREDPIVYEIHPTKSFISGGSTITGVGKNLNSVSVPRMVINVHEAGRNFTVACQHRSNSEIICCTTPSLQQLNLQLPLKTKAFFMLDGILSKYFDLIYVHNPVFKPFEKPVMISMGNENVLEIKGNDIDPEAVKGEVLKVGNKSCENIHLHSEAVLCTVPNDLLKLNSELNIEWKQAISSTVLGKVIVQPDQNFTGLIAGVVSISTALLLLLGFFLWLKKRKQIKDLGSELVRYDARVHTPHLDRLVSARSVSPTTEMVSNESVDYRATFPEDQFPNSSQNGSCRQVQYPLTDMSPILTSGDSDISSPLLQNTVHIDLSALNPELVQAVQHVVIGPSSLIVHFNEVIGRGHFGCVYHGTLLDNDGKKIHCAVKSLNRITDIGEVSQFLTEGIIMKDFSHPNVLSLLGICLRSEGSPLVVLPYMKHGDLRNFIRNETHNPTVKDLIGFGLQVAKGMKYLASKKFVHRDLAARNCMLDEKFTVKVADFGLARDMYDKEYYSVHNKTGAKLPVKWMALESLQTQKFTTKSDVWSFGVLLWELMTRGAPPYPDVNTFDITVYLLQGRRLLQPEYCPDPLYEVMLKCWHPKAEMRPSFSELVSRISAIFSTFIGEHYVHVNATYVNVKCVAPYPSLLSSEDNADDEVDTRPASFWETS
In short: as §2

AKT = target: T12, AKT (Homo sapiens, UniProt Q9Y243); assay: Kinase inhibition assay (33P transfer), AKT; settings: Table 2, kinase inhibition class; read-out: AKT3-1
T12 construct: Kinases are expressed as either kinase domains or full length constructs; made in house
In short: as §1

IGFR-1 = target: T13, IGFR-1 (Homo sapiens, UniProt P08069); assay: Kinase inhibition assay, IGFR-1 (Table 2); settings: Table 2, kinase inhibition class
T13 construct: Kinases are expressed as either kinase domains or full length constructs; made in house

PDGFRB [1] = target: T14, PDGFRB (Homo sapiens, UniProt P09619); assay: Kinase inhibition assay (33P transfer), PDGFRB; settings: read-out: PDGFRB-1
T14 construct: Kinases are expressed as either kinase domains or full length constructs; made in house
T14 sequence (P09619 33-1106, species assumed): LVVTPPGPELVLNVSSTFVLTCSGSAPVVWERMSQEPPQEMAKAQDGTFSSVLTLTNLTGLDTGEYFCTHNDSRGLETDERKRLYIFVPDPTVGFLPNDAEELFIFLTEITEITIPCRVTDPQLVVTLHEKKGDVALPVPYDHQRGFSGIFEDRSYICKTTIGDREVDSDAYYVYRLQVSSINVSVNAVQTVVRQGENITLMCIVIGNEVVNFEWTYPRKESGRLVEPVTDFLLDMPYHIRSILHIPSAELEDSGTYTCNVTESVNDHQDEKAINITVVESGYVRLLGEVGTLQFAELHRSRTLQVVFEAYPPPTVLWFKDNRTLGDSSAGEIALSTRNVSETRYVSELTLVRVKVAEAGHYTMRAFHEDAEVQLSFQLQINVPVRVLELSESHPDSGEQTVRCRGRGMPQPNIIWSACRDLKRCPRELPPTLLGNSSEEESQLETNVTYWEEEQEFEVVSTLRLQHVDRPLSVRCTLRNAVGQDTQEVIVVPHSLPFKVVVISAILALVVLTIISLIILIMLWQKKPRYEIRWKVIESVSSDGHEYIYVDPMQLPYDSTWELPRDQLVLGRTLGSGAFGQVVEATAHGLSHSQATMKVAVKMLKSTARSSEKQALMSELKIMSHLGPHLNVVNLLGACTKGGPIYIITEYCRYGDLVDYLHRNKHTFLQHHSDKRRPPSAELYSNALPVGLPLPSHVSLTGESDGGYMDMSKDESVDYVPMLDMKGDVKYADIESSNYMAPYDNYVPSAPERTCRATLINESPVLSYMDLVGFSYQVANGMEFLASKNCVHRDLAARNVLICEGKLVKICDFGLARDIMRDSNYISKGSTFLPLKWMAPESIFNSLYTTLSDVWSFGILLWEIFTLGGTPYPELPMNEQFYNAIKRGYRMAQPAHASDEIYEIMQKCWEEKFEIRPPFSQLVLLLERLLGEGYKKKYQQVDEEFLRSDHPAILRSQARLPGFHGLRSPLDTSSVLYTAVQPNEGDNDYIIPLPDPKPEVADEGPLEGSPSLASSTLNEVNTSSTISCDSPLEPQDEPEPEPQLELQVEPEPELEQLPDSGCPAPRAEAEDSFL

Hck-1 = target: T15, Hck-1 (Homo sapiens, UniProt P08631); assay: Kinase inhibition assay (33P transfer), Hck; settings: Table 6, Hck-1 kinase inhibition class
T15 construct: Kinases are expressed as either kinase domains or full length constructs; made in house

ErbB4 = target: T16, ErbB4 (Homo sapiens, UniProt Q15303); assay: Kinase inhibition assay (33P transfer), ErbB4; settings: read-out: ErbB4-1
T16 construct: Kinases are expressed as either kinase domains or full length constructs; made in house

Ret-1 = target: T17, Ret-1 (Homo sapiens, UniProt P07949); assay: Kinase inhibition assay (33P transfer), Ret; settings: Table 6, Ret-1 kinase inhibition class
T17 construct: Kinases are expressed as either kinase domains or full length constructs; made in house
T17 sequence (P07949 29-1114): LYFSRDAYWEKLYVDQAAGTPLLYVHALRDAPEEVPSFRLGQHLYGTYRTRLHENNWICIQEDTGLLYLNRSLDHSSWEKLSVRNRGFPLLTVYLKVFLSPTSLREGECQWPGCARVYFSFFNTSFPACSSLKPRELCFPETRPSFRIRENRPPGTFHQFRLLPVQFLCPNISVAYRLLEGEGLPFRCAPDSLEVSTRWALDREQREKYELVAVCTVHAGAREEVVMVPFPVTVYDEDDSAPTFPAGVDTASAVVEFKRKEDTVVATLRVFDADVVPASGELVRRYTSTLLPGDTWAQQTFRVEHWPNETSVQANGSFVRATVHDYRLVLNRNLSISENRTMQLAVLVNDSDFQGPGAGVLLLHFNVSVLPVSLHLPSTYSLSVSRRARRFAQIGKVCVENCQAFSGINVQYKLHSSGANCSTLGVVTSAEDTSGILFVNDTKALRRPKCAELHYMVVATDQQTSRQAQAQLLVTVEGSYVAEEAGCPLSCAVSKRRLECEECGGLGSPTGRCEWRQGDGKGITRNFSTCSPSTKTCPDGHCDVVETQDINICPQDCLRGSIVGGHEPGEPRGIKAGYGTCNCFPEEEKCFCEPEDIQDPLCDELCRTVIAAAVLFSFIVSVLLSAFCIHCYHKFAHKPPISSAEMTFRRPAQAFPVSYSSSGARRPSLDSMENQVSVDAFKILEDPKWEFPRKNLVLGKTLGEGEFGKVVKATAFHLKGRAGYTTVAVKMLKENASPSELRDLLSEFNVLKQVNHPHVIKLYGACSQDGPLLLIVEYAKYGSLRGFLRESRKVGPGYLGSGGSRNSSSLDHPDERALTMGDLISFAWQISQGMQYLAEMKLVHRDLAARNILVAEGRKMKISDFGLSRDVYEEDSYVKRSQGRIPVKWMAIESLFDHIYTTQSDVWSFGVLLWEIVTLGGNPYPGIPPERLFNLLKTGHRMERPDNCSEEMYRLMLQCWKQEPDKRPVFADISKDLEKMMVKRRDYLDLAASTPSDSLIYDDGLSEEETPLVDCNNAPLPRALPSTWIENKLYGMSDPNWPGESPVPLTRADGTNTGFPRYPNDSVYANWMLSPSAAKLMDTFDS

FGFR1 = target: T18, FGFR1 (Homo sapiens, UniProt P11362); assay: Kinase inhibition assay (33P transfer), FGFR1; settings: read-out: FGFR1-1
T18 construct: Kinases are expressed as either kinase domains or full length constructs; made in house

PDGFRB [2] = target: T14, PDGFRB; assay: Kinase inhibition assay (33P transfer), PDGFRB; settings: read-out: PDGFRB-1; remark: listed apart in the source

Row | Structure (SMILES) | IC50 (Lck) [µM] | IC50 (Lyn) [µM] | IC50 (Src) [µM] | IC50 (Fyn) [µM] | IC50 (Zap-70) [µM] | IC50 (Itk) [µM] | IC50 (EGFR) | IC50 (ErbB2) | IC50 (Kdr) | IC50 (Flt-1) [µM] | IC50 (c-Met) | IC50 (AKT) [µM] | IC50 (IGFR-1) | IC50 (PDGFRB [1]) [µM] | IC50 (Hck-1) [µM] | IC50 (ErbB4) [µM] | IC50 (Ret-1) [µM] | IC50 (FGFR1) [µM] | IC50 (PDGFRB [2])
1 | CCN(CC)CCOc1ccc(Nc2ncnc(Nc3cc(OC)c(OC)c(OC)c3)n2)cc1OC [Compound 602] | 0.802 to 4.81 | 0.802 to 4.81 | 0.802 to 4.81 | 0.802 to 4.81 | > 9.03 | > 9.03 | 0.802 to 4.81 µM | 0.802 to 4.81 µM | 7.02 to 9.03 µM | > 9.03 | > 9.03 µM | > 9.03 | > 9.03 µM | 0.802 to 4.81 | > 9.03 | 0.802 to 4.81 | > 9.03 | > 9.03 | 
2 | COc1cc(Nc2ncnc(N(C)c3cccc(Cl)c3)n2)cc(OC)c1OC [Compound 603] | < 0.995 | 0.995 to 5.97 | 0.995 to 5.97 | 0.995 to 5.97 | > 11.2 | > 11.2 | < 0.995 µM | < 0.995 µM | < 0.995 µM | 0.995 to 5.97 | 0.995 to 5.97 µM | > 11.2 | 0.995 to 5.97 µM | 0.995 to 5.97 | 8.71 to 11.2 | 8.71 to 11.2 | < 0.995 | 0.995 to 5.97 | 
3 | COc1cc(Nc2ncnc(-n3c(NCc4ccc(Cl)cc4F)nc4ccccc43)n2)cc(OC)c1OC [Compound 606] | 4.48 to 6.53 | 4.48 to 6.53 | > 8.4 | > 8.4 | > 8.4 | > 8.4 | > 8.4 µM | 6.53 to 8.4 µM | < 0.746 µM | 4.48 to 6.53 | > 8.4 µM | > 8.4 | 6.53 to 8.4 µM | 0.746 to 4.48 | > 8.4 | > 8.4 | 0.746 to 4.48 | 0.746 to 4.48 | 

Other lines, results leading:

Row | IC50 (Lck) [µM] | IC50 (Lyn) [µM] | IC50 (Src) [µM] | IC50 (Fyn) [µM] | IC50 (Zap-70) [µM] | IC50 (Itk) [µM] | IC50 (EGFR) | IC50 (ErbB2) | IC50 (Kdr) | IC50 (Flt-1) [µM] | IC50 (c-Met) | IC50 (AKT) [µM] | IC50 (IGFR-1) | IC50 (PDGFRB [1]) [µM] | IC50 (Hck-1) [µM] | IC50 (ErbB4) [µM] | IC50 (Ret-1) [µM] | IC50 (FGFR1) [µM] | IC50 (PDGFRB [2]) | Structure (SMILES)
4 | 0.764 to 4.58 | 0.764 to 4.58 | > 8.59 | > 8.59 | > 8.59 | > 8.59 | 4.58 to 6.68 µM and 6.68 to 8.59 µM | 0.764 to 4.58 µM and 4.58 to 6.68 µM | < 0.764 µM and 0.764 to 4.58 µM | 0.764 to 4.58 | 6.68 to 8.59 µM and > 8.59 µM | > 8.59 | 6.68 to 8.59 µM and > 8.59 µM |  |  | 0.764 to 4.58 | < 0.764 | < 0.764 | 0.764 to 4.58 µM and > 8.59 µM | COc1cc(Nc2ncnc(-n3c(NC4CCCc5ccccc54)nc4ccccc43)n2)cc(OC)c1OC (centres unmarked) [Compound 587]
5 | 0.776 to 4.66 | 0.776 to 4.66 | > 8.73 | > 8.73 | > 8.73 | > 8.73 | > 8.73 µM | > 8.73 µM | < 0.776 µM | 0.776 to 4.66 | > 8.73 µM | > 8.73 | > 8.73 µM | < 0.776 | > 8.73 | > 8.73 | < 0.776 | < 0.776 |  | COc1cc(Nc2ncnc(-n3c(NC(C)c4ccc(F)cc4)nc4ccccc43)n2)cc(OC)c1OC (centres unmarked) [Compound 605]
